Results published in US20260015325A1, “ALKOXY HETEROARYL- CARBOXAMIDE OR THIOAMIDE COMPOUNDS” (SYNGENTA CROP PROTECTION AG, priority 2022, published 2026).

Assays:
Format in all cases: in vivo
[1] = test system: Myzus persicae (Green Peach Aphid); assay: Myzus persicae (Green Peach Aphid): systemic activity, pea seedlings; settings: 144 h, test rate of 24 ppm, systemic, roots of infested pea seedlings in test solution, 6 days, read-out: mortality
Description: Example B7: Myzus persicae (Green Peach Aphid). Systemic Activity
Roots of pea seedlings infested with an aphid population of mixed ages were placed directly into aqueous test solutions prepared from 10′000 DMSO stock solutions. The samples were assessed for mortality 6 days after placing seedlings into test solutions.

[2] = test system: Tetranychus urticae (Two-Spotted Spider Mite); assay: whole plant or invertebrate; settings: foliar, 192 h, application rate of 200 ppm, mixed population (mobile stages) on sprayed bean leaf discs, 8 days after infestation, read-out: mortality
Description: Example B11: Tetranychus urticae (Two-Spotted Spider Mite): Feeding/Contact Activity
Bean leaf discs on agar in 24-well microtiter plates were sprayed with aqueous test solutions prepared from 10′000 ppm DMSO stock solutions. After drying the leaf discs were infested with a mite population of mixed ages. The samples were assessed for mortality on mixed population (mobile stages) 8 days after infestation.

[3] = test system: Myzus persicae (Green Peach Aphid); assay: Myzus persicae (Green Peach Aphid): intrinsic activity, sucrose solution; settings: 120 h, test rate of 12 ppm, intrinsic, mixed with sucrose solution under Parafilm, 5 days after infestation, read-out: mortality
How it was run: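 Compounds from 10′000 ppm DMSO stocks mixed with sucrose solution in wells sealed with Parafilm; aphid-infested pea seedlings placed on the Parafilm and the assembly inverted so aphids feed through the membrane. Mortality assessed 5 days after infestation.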

[4] = test system: Myzus persicae (Green Peach Aphid); assay: Myzus persicae (Green Peach Aphid): feeding/contact activity, sunflower leaf discs; settings: foliar, 144 h, application rate of 200 ppm, mixed ages on sprayed sunflower leaf discs, 6 days after infestation, read-out: mortality
Description: Example B6: Myzus persicae (Green Peach Aphid): Feeding/Contact Activity
Sunflower leaf discs were placed onto agar in a 24-well microtiter plate and sprayed with aqueous test solutions prepared from 10′000 ppm DMSO stock solutions. After drying, the leaf discs were infested with an aphid population of mixed ages. The samples were assessed for mortality 6 days after infestation.

[5] = test system: Plutella xylostella (Diamond Back Moth); assay: Plutella xylostella (Diamond Back Moth), artificial diet; settings: 192 h, application rate of 200 ppm, eggs on treated artificial diet, 8 days after infestation, read-out: effect in at least one of the two categories (mortality or growth inhibition)
Description: Example B9: Plutella xylostella (Diamond Back Moth)
24-well microtiter plates with artificial diet were treated with aqueous test solutions prepared from 10′000 ppm DMSO stock solutions by pipetting. After drying, Plutella eggs were pipetted through a plastic stencil onto a gel blotting paper and the plate was closed with it. The samples were assessed for mortality and growth inhibition in comparison to untreated samples 8 days after infestation.

Spodoptera littoralis = Spodoptera littoralis (Egyptian Cotton Leaf Worm), cotton leaf discs; settings: foliar, 72 h, application rate of 200 ppm, L1 larvae on sprayed cotton leaf discs, 3 days after infestation, read-out: control (at least one of mortality, anti-feedant effect, growth inhibition)
Description: Example B10: Spodoptera littoralis (Eaytian Cotton Leaf Worm)
Cotton leaf discs were placed onto agar in 24-well microtiter plates and sprayed with aqueous test solutions prepared from 10′000 ppm DMSO stock solutions. After drying the leaf discs were infested with five L1 larvae. The samples were assessed for mortality, anti-feeding effect, and growth inhibition in comparison to untreated samples 3 days after infestation. Control of Spodoptera littoralis by a test sample is given when at least one of the categories mortality, anti-feedant effect, and growth inhibition is higher than the untreated sample.

[6] = test system: Diabrotica balteata (Corn Root Worm); assay: whole plant or invertebrate; settings: 96 h, application rate of 200 ppm, L2 larvae on sprayed maize sprouts, 4 days after infestation, read-out: effect in at least one of the two categories (mortality or growth inhibition)
Description: Example B3: Diabrotica balteata (Corn Root Worm)
Maize sprouts placed onto an agar layer in 24-well microtiter plates were treated with aqueous test solutions prepared from 10′000 ppm DMSO stock solutions by spraying. After drying, the plates were infested with L2 larvae (6 to 10 per well). The samples were assessed for mortality and growth inhibition in comparison to untreated samples 4 days after infestation.

[7] = test system: Bemisia tabaci (Cotton White Fly); assay: Bemisia tabaci (Cotton White Fly): feeding/contact activity, cotton leaf discs; settings: foliar, 144 h, application rate of 200 ppm, adult white flies on sprayed cotton leaf discs, 6 days after incubation, read-out: mortality
Description: Example B1: Bemisia tabaci (Cotton White Fly): Feeding/Contact Activity
Cotton leaf discs were placed on agar in 24-well microtiter plates and sprayed with aqueous test solutions prepared from 10′000 ppm DMSO stock solutions. After drying the leaf discs were infested with adult white flies. The samples were checked for mortality 6 days after incubation.

[8] = test system: Euschistus heros (Neotropical Brown Stink Bug); assay: Euschistus heros (Neotropical Brown Stink Bug), soybean leaves; settings: 120 h, application rate of 200 ppm, N2 nymphs on sprayed soybean leaves, 5 days after infestation, read-out: effect in at least one of the two categories (mortality or growth inhibition)
Description: Example B4: Euschistus heros (Neotropical Brown Stink Bug)
Soybean leaves on agar in 24-well microtiter plates were sprayed with aqueous test solutions prepared from 10′000 ppm DMSO stock solutions. After drying the leaves were infested with N2 nymphs. The samples were assessed for mortality and growth inhibition in comparison to untreated samples 5 days after infestation.

[9] = test system: Frankliniella occidentalis (Western Flower Thrips); assay: Frankliniella occidentalis (Western Flower Thrips): feeding/contact activity, sunflower leaf discs; settings: foliar, 168 h, application rate of 200 ppm, mixed ages on sprayed sunflower leaf discs, 7 days after infestation
Description: Example B5: Frankliniella occidentalis (Western Flower Thrips): Feeding/Contact Activity
Sunflower leaf discs were placed on agar in 24-well microtiter plates and sprayed with aqueous test solutions prepared from […] stock solutions. After drying the leaf discs were infested with a Frankliniella population of mixed ages. The samples were assessed for mortality 7 days after infestation.

[10] = test system: Chilo suppressalis (Striped Rice Stemborer); assay: Chilo suppressalis (Striped Rice Stemborer), artificial diet; settings: 144 h, application rate of 200 ppm, L2 larvae on treated artificial diet, 6 days after infestation, read-out: control (at least one of mortality, anti-feedant effect, growth inhibition)
Description: Example B2: Chilo suppressalis (Striped Rice Stemborer)
24-well microtiter plates with artificial diet were treated with aqueous test solutions prepared from 10′000 ppm DMSO stock solutions by pipetting. After drying, the plates were infested with L2 larvae (6-8 per well). The samples were assessed for mortality, anti-feeding effect, and growth inhibition in comparison to untreated samples 6 days after infestation. Control of Chilo suppressalis by a test sample is given when at least one of the categories mortality, anti-feedant effect, and growth inhibition is higher than the untreated sample.

C[C@@H](COc1cnc(Cl)c(C(=O)NC23CC(C2)C3)c1)NS(=O)(=O)C(F)(F)F [Compound P-5, N-(1-bicyclo[1.1.1]pentanyl)-2-chloro-5-[(2S)-2-(trifluoromethylsulfonylamino)propoxy]pyridine-3-carboxamide]
≥ 80%: mortality at 24 ppm [1] | mortality at 200 ppm [2] | mortality at 12 ppm [3] | mortality at 200 ppm [4] | percent effect (mortality or growth inhibition) at 200 ppm [5]

Cc1cc(F)ccc1NC(=O)c1cc(OC[C@H](C)NS(=O)(=O)C(F)(F)F)cnc1Cl [Compound P-60, 2-chloro-N-(4-fluoro-2-methyl-phenyl)-5-[(2S)-2-(trifluoromethylsulfonylamino)propoxy]pyridine-3-carboxamide]
≥ 80%: mortality at 200 ppm [2] | mortality at 12 ppm [3] | percent control (mortality, anti-feedant effect or growth inhibition) at 200 ppm (Spodoptera littoralis) | percent effect (mortality or growth inhibition) at 200 ppm [5]

C[C@@H](COc1cnc(Cl)c(C(=O)Nc2ccc(C#N)cc2F)c1)NS(=O)(=O)C(F)(F)F [Compound P-22, 2-chloro-N-(4-cyano-2-fluoro-phenyl)-5-[(2S)-2-(trifluoromethylsulfonylamino)propoxy]pyridine-3-carboxamide]
≥ 80%: mortality at 200 ppm [2] | percent effect (mortality or growth inhibition) at 200 ppm [6]

C[C@@H](COc1cnc(Cl)c(C(=O)NC2CC2)c1)NS(=O)(=O)C(F)(F)F [Compound P-1, 2-chloro-N-cyclopropyl-5-[(2S)-2-(trifluoromethylsulfonylamino)propoxy]pyridine-3-carboxamide]
≥ 80%: mortality at 24 ppm [1] | mortality at 200 ppm [2] | mortality at 200 ppm [7] | mortality at 12 ppm [3] | percent effect (mortality or growth inhibition) at 200 ppm [8] | mortality at 200 ppm [4] | mortality at 200 ppm [9] | percent effect (mortality or growth inhibition) at 200 ppm [5] | percent effect (mortality or growth inhibition) at 200 ppm [6]

Cc1nc(C(C)NC(=O)c2cc(OC[C@H](C)NS(=O)(=O)C(F)(F)F)cnc2C)no1 (stereo partly drawn) [Compound P-38, 2-methyl-N-[1-(5-methyl-1,2,4-oxadiazol-3-yl)ethyl]-5-[(2S)-2-(trifluoromethylsulfonylamino)propoxy]pyridine-3-carboxamide]
≥ 80%: percent effect (mortality or growth inhibition) at 200 ppm [5]

COCN([C@@H](C)COc1cnc(Cl)c(C(=O)NC2CC2)c1)S(=O)(=O)C(F)(F)F [Compound P-64, 2-chloro-N-cyclopropyl-5-[(2S)-2-[methoxymethyl(trifluoromethylsulfonyl)amino]propoxy]pyridine-3-carboxamide]
≥ 80%: mortality at 24 ppm [1] | mortality at 200 ppm [2] | mortality at 200 ppm [7] | mortality at 12 ppm [3] | percent effect (mortality or growth inhibition) at 200 ppm [8] | mortality at 200 ppm [4] | mortality at 200 ppm [9] | percent effect (mortality or growth inhibition) at 200 ppm [6]

COCN([C@@H](C)COc1cnc(Cl)c(C(=O)NCC(F)(F)F)c1)S(=O)(=O)C(F)(F)F [Compound P-63, 2-chloro-5-[(2S)-2-[methoxymethyl(trifluoromethylsulfonyl)amino]propoxy]-N-(2,2,2-trifluoroethyl)pyridine-3-carboxamide]
≥ 80%: mortality at 200 ppm [2] | mortality at 200 ppm [7] | mortality at 12 ppm [3] | percent control (mortality, anti-feedant effect or growth inhibition) at 200 ppm [10] | percent effect (mortality or growth inhibition) at 200 ppm [8]

Cc1ncc(OC[C@H](C)NS(=O)(=O)C(F)(F)F)cc1C(=O)NC(C)c1ncnn1-c1ccc(C#N)cn1 (stereo partly drawn) [Compound P-27, N-[1-[2-(5-cyano-2-pyridyl)-1,2,4-triazol-3-yl]ethyl]-2-methyl-5-[(2S)-2-(trifluoromethylsulfonylamino)propoxy]pyridine-3-carboxamide]
≥ 80%: percent effect (mortality or growth inhibition) at 200 ppm [5]

C[C@@H](COc1cnc(Cl)c(C(=O)Nc2ccc(F)cc2F)c1)NS(=O)(=O)C(F)(F)F [Compound P-23, 2-chloro-N-(2,4-difluorophenyl)-5-[(2S)-2-(trifluoromethylsulfonylamino)propoxy]pyridine-3-carboxamide]
≥ 80%: mortality at 200 ppm [2] | mortality at 200 ppm [7] | mortality at 12 ppm [3] | percent effect (mortality or growth inhibition) at 200 ppm [5]

C[C@@H](COc1cnc(Cl)c(C(=O)Nc2ccc(Cl)cc2F)c1)NS(=O)(=O)C(F)(F)F [Compound P-25, 2-chloro-N-(4-chloro-2-fluoro-phenyl)-5-[(2S)-2-(trifluoromethylsulfonylamino)propoxy]pyridine-3-carboxamide]
≥ 80%: mortality at 200 ppm [2] | percent effect (mortality or growth inhibition) at 200 ppm [5]

Cc1ncc(OC[C@H](C)NS(=O)(=O)C(F)(F)F)cc1C(=O)NOCC1CC1 [Compound P-41, N-(cyclopropylmethoxy)-2-methyl-5-[(2S)-2-(trifluoromethylsulfonylamino)propoxy]pyridine-3-carboxamide]
≥ 80%: percent effect (mortality or growth inhibition) at 200 ppm [5]

CCN1OC[C@@H](NC(=O)c2cc(OC[C@H](C)NS(=O)(=O)C(F)(F)F)ncc2Br)C1=O [Compound P-84, 5-bromo-N-[(4R)-2-ethyl-3-oxo-isoxazolidin-4-yl]-2-[(2S)-2-(trifluoromethylsulfonylamino)propoxy]pyridine-4-carboxamide]
≥ 80%: percent effect (mortality or growth inhibition) at 200 ppm [6]

C[C@@H](COc1cnc(Cl)c(C(=O)NC2(C#N)CC2)c1)N(C)S(=O)(=O)C(F)(F)F [Compound P-7, 2-chloro-N-(1-cyanocyclopropyl)-5-[(2S)-2-[methyl(trifluoromethylsulfonyl)amino]propoxy]pyridine-3-carboxamide]
≥ 80%: mortality at 24 ppm [1] | mortality at 200 ppm [7] | mortality at 12 ppm [3] | mortality at 200 ppm [9] | percent effect (mortality or growth inhibition) at 200 ppm [6]

CCN1OC[C@@H](NC(=O)c2cc(OC[C@H](C)NS(=O)(=O)C(F)(F)F)cnc2Cl)C1=O [Compound P-65, 2-chloro-N-[(4R)-2-ethyl-3-oxo-isoxazolidin-4-yl]-5-[(2S)-2-(trifluoromethylsulfonylamino)propoxy]pyridine-3-carboxamide]
≥ 80%: mortality at 200 ppm [2] | percent control (mortality, anti-feedant effect or growth inhibition) at 200 ppm (Spodoptera littoralis)
